From ChEMBL document CHEMBL1148627, “Design and synthesis of heterocyclic malonyl-CoA decarboxylase inhibitors” (Bioorg Med Chem Lett, 2006)

Target: T1, Malonyl-CoA decarboxylase, mitochondrial (Homo sapiens, UniProt O95822)
T1 sequence (O95822 whole entry): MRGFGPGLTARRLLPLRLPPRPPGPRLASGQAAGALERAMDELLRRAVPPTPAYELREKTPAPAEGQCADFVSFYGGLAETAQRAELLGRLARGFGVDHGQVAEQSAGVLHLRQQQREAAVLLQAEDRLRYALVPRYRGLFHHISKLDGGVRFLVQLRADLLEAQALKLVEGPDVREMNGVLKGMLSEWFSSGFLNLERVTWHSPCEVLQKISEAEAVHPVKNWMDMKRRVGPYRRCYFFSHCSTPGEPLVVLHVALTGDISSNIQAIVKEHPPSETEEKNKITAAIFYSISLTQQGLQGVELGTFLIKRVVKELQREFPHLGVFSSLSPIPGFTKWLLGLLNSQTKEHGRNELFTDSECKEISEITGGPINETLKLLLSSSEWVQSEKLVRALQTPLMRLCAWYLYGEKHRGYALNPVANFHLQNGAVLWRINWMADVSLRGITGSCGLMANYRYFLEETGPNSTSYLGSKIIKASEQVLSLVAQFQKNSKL
Experiment: Inhibitory activity against recombinant human MCD MBP fusion protein

Row | SMILES | IC50 [nM]
1 | CC(C)NC(=O)CCC1CN(Cc2cnc(C(C)C)n2-c2ccc(C(O)(C(F)(F)F)C(F)(F)F)cc2)CCO1 (stereo not drawn) | 1080
2 | CC(C)c1nc(C(F)(F)F)cn1-c1ccc(C(O)(C(F)(F)F)C(F)(F)F)cc1 | 567
3 | OCc1cnc(-c2ccccn2)n1-c1ccc(C(O)(C(F)(F)F)C(F)(F)F)cc1 | 791

Other lines, results leading:

Row | IC50 [nM] | SMILES
4 | 523 | CCC(C)c1ncc(/C=C/C(=O)O)n1-c1ccc(C(O)(C(F)(F)F)C(F)(F)F)cc1 (stereo not drawn)
5 | 341 | CCC(C)c1ncc(CNC(C)C)n1-c1ccc(C(O)(C(F)(F)F)C(F)(F)F)cc1 (stereo not drawn)
6 | 243 | CC(C)c1nc(CO)cn1-c1ccc(C(O)(C(F)(F)F)C(F)(F)F)cc1
7 | 482 | CCCCNCc1cnc(C(C)C)n1-c1ccc(C(O)(C(F)(F)F)C(F)(F)F)cc1
8 | 321 | CCC(C)c1ncc(CO)n1-c1ccc(C(O)(C(F)(F)F)C(F)(F)F)cc1 (stereo not drawn)
